In PubChem BioAssay AID328 (DTP/NCI, 2004) one finds T/C data, which are given here for 21 compounds.

For the test, the system named is BDF1 mice, P388 leukemia ip, median survival T/C. The test can be described thus: NCI In Vivo Anticancer Drug Screen. Data for tumor model P388 Leukemia (intraperitoneal) in B6D2F1 (BDF1) mice. The settings on record: endpoint: median survival time, higher = longer survival. In a few lines:
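Read-out is survival of treated animals expressed relative to the vehicle group, as a T/C ratio.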

Setting [1] is: dose: 50.0 mg/kg/injection, schedule: Q01DX009 (ip), vehicle: Klucel (hydroxypropylcellulose) (HPC).
Setting [2] is: dose: 100.0 mg/kg/injection, schedule: Q01DX009 (ip), vehicle: Klucel (hydroxypropylcellulose) (HPC).
[3] abbreviates: dose: 100.0 mg/kg/injection, schedule: Q04DX003 (ip), vehicle: Klucel (hydroxypropylcellulose) (HPC).
[4] abbreviates: dose: 200.0 mg/kg/injection, schedule: Q04DX003 (ip), vehicle: Klucel (hydroxypropylcellulose) (HPC).
The mark [5] stands for this setting: dose: 25.0 mg/kg/injection, schedule: Q01DX009 (ip), vehicle: saline with Tween-80.
Where [6] appears, read: dose: 50.0 mg/kg/injection, schedule: Q01DX009 (ip), vehicle: saline with Tween-80.
Where [7] appears, read: dose: 100.0 mg/kg/injection, schedule: Q01DX009 (ip), vehicle: saline with Tween-80.
The mark [8] stands for this setting: dose: 200.0 mg/kg/injection, schedule: Q01DX009 (ip), vehicle: Klucel (hydroxypropylcellulose) (HPC).
The mark [9] stands for this setting: dose: 50.0 mg/kg/injection, schedule: Q01DX009 (ip), vehicle: saline.
Where [10] appears, read: dose: 100.0 mg/kg/injection, schedule: Q01DX009 (ip), vehicle: saline.
[11] abbreviates: dose: 200.0 mg/kg/injection, schedule: Q01DX009 (ip), vehicle: saline.
The mark [12] stands for this setting: dose: 100.0 mg/kg/injection, schedule: Q04DX003 (ip), vehicle: saline with Tween-80.
The mark [13] stands for this setting: dose: 200.0 mg/kg/injection, schedule: Q04DX003 (ip), vehicle: saline with Tween-80.
[14] abbreviates: dose: 400.0 mg/kg/injection, schedule: Q04DX003 (ip), vehicle: saline with Tween-80.
Setting [15] is: dose: 200.0 mg/kg/injection, schedule: Q01DX009 (ip), vehicle: saline with Tween-80.
The mark [16] stands for this setting: dose: 50.0 mg/kg/injection, schedule: Q04DX003 (ip), vehicle: saline.
Where [17] appears, read: dose: 100.0 mg/kg/injection, schedule: Q04DX003 (ip), vehicle: saline.

Where “and” joins values, the source holds several entries; their conditions need not be identical. Equal entries are not always repeated. Toxic doses and inconclusive results are not listed.

As to `O=C(Nc1ccc(C(=O)Nc2cc(S(=O)(=O)O)cc3cccc(S(=O)(=O)O)c23)cc1)Nc1ccc(C(=O)Nc2cc(S(=O)(=O)O)cc3cccc(S(=O)(=O)O)c23)cc1`, the T/C reads like this: under setting [1], 95 % of control; (dose: 50.0 mg/kg/injection, schedule: Q04DX003 (ip), vehicle: Klucel (hydroxypropylcellulose) (HPC)) 100 % of control; under setting [2], 110 % of control; under setting [3], 104 % of control; under setting [4], 86 % of control.

Take `CNCCCC12CC(c3ccccc31)c1ccccc12`: the T/C reads like this: under setting [5], 103 % of control; under setting [6], 101 % of control; under setting [7], 112 % of control.

For the compound `CC/C(=C(\c1ccccc1)c1ccc(OCCN(C)C)cc1)c1ccccc1`, the T/C is 122 % of control (dose: 25.0 mg/kg/injection, schedule: Q01DX009 (ip), vehicle: Klucel (hydroxypropylcellulose) (HPC)); 122 % of control under setting [1]; 102 % of control and 108 % of control under setting [2].

Consider `O=c1c(O)c(-c2ccccc2)oc2ccccc12`, for which the T/C runs as follows: under setting [2], 95 % of control; under setting [3], 91 % of control and 103 % of control; under setting [8], 100 % of control; under setting [4], 91 % of control and 92 % of control; (dose: 400.0 mg/kg/injection, schedule: Q01DX009 (ip), vehicle: Klucel (hydroxypropylcellulose) (HPC)) 108 % of control; (dose: 400.0 mg/kg/injection, schedule: Q04DX003 (ip), vehicle: Klucel (hydroxypropylcellulose) (HPC)) 95 % of control and 96 % of control.

Turning to `O=[N+]([O-])c1ccc(Sc2ccccc2)c2nonc12`, the T/C reads like this: (dose: 12.5 mg/kg/injection, schedule: Q01DX009 (ip), vehicle: saline with Tween-80) 88 % of control; under setting [5], 107 % of control; under setting [6], 116 % of control.

`C/C(=N\OCc1cc2c(cc1Cl)OCO2)C(=O)O`: the T/C reads like this: (dose: 100.0 mg/kg/injection, schedule: Q04DX003 (ip), vehicle: saline sonified) 113 % of control; (dose: 200.0 mg/kg/injection, schedule: Q04DX003 (ip), vehicle: saline sonified) 109 % of control; (dose: 400.0 mg/kg/injection, schedule: Q04DX003 (ip), vehicle: saline sonified) 109 % of control.

On to `O=C(Oc1ccccc1)c1cc(O)c(O)c(O)c1`, for which the T/C is 100 % of control and 106 % of control (dose: 50.0 mg/kg/injection, schedule: Q01DX005 (ip), vehicle: saline with Tween-80); 107 % of control and 115 % of control (dose: 100.0 mg/kg/injection, schedule: Q01DX005 (ip), vehicle: saline with Tween-80); 105 % of control (dose: 200.0 mg/kg/injection, schedule: Q01DX005 (ip), vehicle: saline with Tween-80); 154 % of control (dose: 400.0 mg/kg/injection, schedule: Q01DX005 (ip), vehicle: saline with Tween-80).

Turning to `CCOC(=O)C(OCc1ccccc1)(C(=O)NCCc1ccc(OC)c(OC)c1)C(C)C` (configuration not stated), the T/C is 100 % of control (dose: 25.0 mg/kg/injection, schedule: Q04DX003 (ip), vehicle: other); 108 % of control (dose: 50.0 mg/kg/injection, schedule: Q04DX003 (ip), vehicle: other); 93 % of control (dose: 100.0 mg/kg/injection, schedule: Q04DX003 (ip), vehicle: other).

Turning to `CS(=O)(=O)C(F)(F)C(F)(F)C(F)(F)C(F)(F)F`, the T/C reads like this: under setting [9], 101 % of control; under setting [10], 101 % of control; under setting [11], 106 % of control.

`CCOc1cc(/C=N\Nc2nncn2N)ccc1N(CCCl)CCCl`: the T/C by setting is: (dose: 0.8 mg/kg/injection, schedule: Q04DX003 (ip), vehicle: saline with Tween-80) 113 % of control; (dose: 3.0 mg/kg/injection, schedule: Q04DX003 (ip), vehicle: saline with Tween-80) 154 % of control; (dose: 5.0 mg/kg/injection, schedule: Q04DX003 (ip), vehicle: saline with Tween-80) 169 % of control; (dose: 8.0 mg/kg/injection, schedule: Q04DX003 (ip), vehicle: saline with Tween-80) 165 % of control; (dose: 10.0 mg/kg/injection, schedule: Q04DX003 (ip), vehicle: saline with Tween-80) 210 % of control; (dose: 12.0 mg/kg/injection, schedule: Q04DX003 (ip), vehicle: saline with Tween-80) 203 % of control. Moreover, the T/C by setting is: (dose: 18.0 mg/kg/injection, schedule: Q04DX003 (ip), vehicle: saline with Tween-80) 278 % of control and 154 % of control; (dose: 20.0 mg/kg/injection, schedule: Q04DX003 (ip), vehicle: saline with Tween-80) 275 % of control; (dose: 26.0 mg/kg/injection, schedule: Q04DX003 (ip), vehicle: saline with Tween-80) 300 % of control and 163 % of control; (dose: 40.0 mg/kg/injection, schedule: Q04DX003 (ip), vehicle: saline with Tween-80) 300 % of control and 105 % of control and 213 % of control.

In the case of `CC(=O)OCC(=O)[C@@]1(O)CC[C@H]2[C@@H]3C[C@H](C)C4=CC(=O)C=C[C@]4(C)[C@H]3[C@@H](O)C[C@@]21C`, the T/C runs as follows: under setting [12], 104 % of control; under setting [13], 104 % of control; under setting [14], 100 % of control.

With `COc1ccc(C(O)c2ccccn2)cc1` (configuration not stated), the T/C is 100 % of control under setting [12], 110 % of control under setting [13] and 105 % of control under setting [14].

As to `OC(CCCCl)CC(O)(C(F)(F)F)C(F)(F)F` (configuration not stated), the T/C was 100 % of control under setting [12] and 109 % of control under setting [13].

As to `NC(=O)c1cc([N+](=O)[O-])c(Cl)c([N+](=O)[O-])c1`, the T/C by setting is: (dose: 2.5 mg/kg/injection, schedule: Q01DX009 (ip), vehicle: Klucel (hydroxypropylcellulose) (HPC)) 109 % of control; (dose: 5.0 mg/kg/injection, schedule: Q01DX009 (ip), vehicle: Klucel (hydroxypropylcellulose) (HPC)) 109 % of control; (dose: 10.0 mg/kg/injection, schedule: Q01DX009 (ip), vehicle: Klucel (hydroxypropylcellulose) (HPC)) 104 % of control and 105 % of control; (dose: 10.0 mg/kg/injection, schedule: Q04DX003 (ip), vehicle: Klucel (hydroxypropylcellulose) (HPC)) 100 % of control; (dose: 40.0 mg/kg/injection, schedule: Q04DX003 (ip), vehicle: Klucel (hydroxypropylcellulose) (HPC)) 90 % of control.

Take `CN(C)c1ccc(/C=C2\C=Cc3ccccc32)cc1`: the T/C reads like this: (dose: 3.12 mg/kg/injection, schedule: Q04DX003 (ip), vehicle: saline with Tween-80) 90 % of control; (dose: 6.25 mg/kg/injection, schedule: Q04DX003 (ip), vehicle: saline with Tween-80) 90 % of control; (dose: 12.5 mg/kg/injection, schedule: Q04DX003 (ip), vehicle: saline with Tween-80) 92 % of control and 100 % of control; under setting [5], 100 % of control; under setting [6], 103 % of control; under setting [7], 96 % of control and 100 % of control. In addition, the T/C under setting [15] is 90 % of control and the T/C under setting [14] was 96 % of control.

As to `c1ccc(C/C(N=Nc2ccccc2)=N\Nc2ccccc2)cc1`, the T/C under setting [1] is 110 % of control, the T/C under setting [2] was 110 % of control and the T/C under setting [8] is 100 % of control.

With `O=C(c1ccccc1)C(SC(C(=O)c1ccccc1)c1ccccc1)c1ccccc1` (configuration not stated), the T/C was 98 % of control under setting [6], 97 % of control under setting [7] and 91 % of control under setting [15].

For the compound `C=C(C)C(=O)OC1CC2(C)OC2CC(OC(C)=O)/C(C)=C/C2OC(=O)C(=C)C21` (configuration not stated), where the note is “dose: 11.25 mg/kg/injection, schedule: Q01DX009 (ip), vehicle: saline”, the T/C was 118 % of control.

For `Cn1c(=O)c2[nH]c(CCCc3nc4c([nH]3)c(=O)n(C)c(=O)n4C)nc2n(C)c1=O`, the T/C by setting is: (dose: 25.0 mg/kg/injection, schedule: Q01DX009 (ip), vehicle: saline) 90 % of control; under setting [9], 89 % of control; under setting [16], 100 % of control; under setting [10], 96 % of control and 122 % of control; under setting [17], 108 % of control.

On to `CC(O)C(O)C(O)C(/C=N\NC(N)=S)=N/NC(N)=S` (configuration not stated), for which the T/C is 92 % of control under setting [10]; 100 % of control under setting [11]; 88 % of control (dose: 400.0 mg/kg/injection, schedule: Q01DX009 (ip), vehicle: saline).

As to `C=CCC(B1OCCO1)B1OCCO1`, the T/C by setting is: (dose: 25.0 mg/kg/injection, schedule: Q04DX003 (ip), vehicle: saline) 95 % of control; under setting [16], 90 % of control; under setting [17], 100 % of control.
